Laboratory results: patent publication EP0965591A1, “(s)-3-methyl-1-(2-piperidino-phenyl)-1-butylamine, its salts, synthesis and use in the long term therapy of diabetes mellitus” (Boehringer Ingelheim Pharma KG, priority 1991, dated 1993)

Columns and labels:
Menschen = experiment: Blood-glucose-lowering effect in human studies; assay type: in vivo
Description: Auf Grund dieser Ergebnisse an der Ratte erscheint für den Menschen die ausschließliche Verwendung von AG-EE 623 ZW geboten, wodurch die Dosis im Vergleich zur AG-EE 388 ZW-Dosis um 50 % reduziert werden kann. […] Darüber hinaus wurde jedoch bei den Human-Studien gefunden, daß AG-EE 623 ZW überraschende pharmakokinetische Eigenschaften aufweist, die auf Grund der AG-EE 388 ZW-Daten nicht vorhersehbar waren. AG-EE 623 ZW zeigt somit überraschende therapeutische Vorteile gegenüber dem Racemat AG-EE 388 ZW.

weiblichen Ratten = experiment: Blood-glucose-lowering effect in female rats; assay type: in vivo, Ratte; conditions: for blutzuckersenkende Wirkung: female rats, comparison of the two enantiomers
Description: Die beiden Enantiomeren dieser Verbindung, nämlich (S)(+)-2-Ethoxy-4-[N-[1-(2-piperidino-phenyl)-3-methyl-1-butyl]-aminocarbonylmethyl]benzoesäure (Code-Nr.: AG-EE 623 ZD) und (R) (-)-2-Ethoxy-4-[N-[1-(2-piperidino-phenyl)-3-methyl-1-butyl]aminocarbonylmethyl]benzoesäure (Code-Nr.: AG-EE 624 ZD), wurden auf ihre blutzuckersenkende Wirkung an weiblichen Ratten geprüft.

[1] = set-up: species or system Menschen; conditions: in vivo
Procedure: Dies wirkt sich z.B. bei Applikation einer Tablette mit 2 mg AG-EE 388 ZW bzw. einer Tablette mit 1 mg AG-EE 623 ZW an 12 bzw. 6 Probanden so aus, daß die Maximal-Konzentrationen 84 ± 25 bzw. 28 ± 18 ng/ml sowie die Konzentrationen nach 4 Stunden 19 ± 8 bzw. 0,7 ± 1,0 ng/ml, nach 5 Stunden 13 ± 6 bzw. 0,3 ± 0,7 ng/ml und nach 6 Stunden 10 ± 6 bzw. 0,3 ± 0,7 ng/ml betragen.

Ratten = experiment: Acute toxicity after a single oral dose in rats; assay type: in vivo; conditions: single 1000 mg/kg p.o., suspension in 1% Methylcellulose; 5 male and 5 female rats; 14 days observation

CCOc1cc(CC(=O)N[C@@H](CC(C)C)c2ccccc2N2CCCCC2)ccc1C(=O)O [AG-EE 623 ZW, (S)(+)-2-Ethoxy-4-[N-[1-(2-piperidino-phenyl)-3-methyl-1-butyl]-aminocarbonylmethyl]benzoesäure]
Wirkungsdauer (Menschen): relativ lange Wirkungsdauer
blutzuckersenkende Wirkung (weiblichen Ratten): das wirksame Enantiomere
Dauer der Wirkung (weiblichen Ratten; rat, blood-glucose-lowering effect): > 6 Stunden
Elimination [1]: wesentlich schneller als das unwirksame Enantiomere, AG-EE 624 ZW, eliminiert
Plasmaspiegel in Relation zur erzielten Blutzuckersenkung [1]: wesentlich niedrigere Plasmaspiegel
verstorbene Tiere (Ratten): kein Tier

CCOc1cc(CC(=O)N[C@H](CC(C)C)c2ccccc2N2CCCCC2)ccc1C(=O)O [AG-EE 624 ZW, (R) (-)-2-Ethoxy-4-[N-[1-(2-piperidino-phenyl)-3-methyl-1-butyl]aminocarbonylmethyl]benzoesäure, reference compound]
blutzuckersenkende Wirkung (weiblichen Ratten): das unwirksame Enantiomere
Plasma-Konzentrationen nach Racemat-Gabe [1]: in unerwartet höheren Maximal- und Dauer-Spiegeln anwesend
